Patent US11767330B2, “Citrate salt, pharmaceutical compositions, and methods of making and using the same” (Foghorn Therapeutics Inc., priority 2021, dated 2023)

Assays:
Type in all cases: physicochemical
[1] = Forced degradation study of compound S-D1 (chiral HPLC)
Experimental: Sample solution stock was prepared by weighing 501.53 mg of compound S-D1 to a 100 mL volumetric flask, dissolving by ultrasonic in 50 mL of diluent 2, diluting to volume with diluent 2, and mixing well.
Unstressed sample solution was prepared by weighing 50.83 mg of compound S-D1 into a 100 mL volumetric flask, dissolving by ultrasonic in 50 mL of diluent 2, diluting to volume with diluent 2, and mixing well.
Sample solution for pH=4.0 solution stability was prepared as follows. 50.79 mg of compound S-D1 were weighed into a 100 mL volumetric flask, dissolved by ultrasonic in 50 mL of pH=4.0 50 mM sodium citrate buffer (see above), diluted to volume with pH=4.0 50 mM sodium citrate buffer, and mixed well.
Sample solution for pH=5.0 solution stability was prepared as follows. 50.66 mg of the compound of Formula I were weighed into a 100 mL volumetric flask, dissolved by ultrasonic in 50 mL of pH=5.0 50 mM sodium citrate buffer (see above), diluted to volume with 50 mL of pH=5.0 50 mM sodium citrate buffer and mixed well.
Sample solution for pH=7.0 solution stability was prepared as follows. 50.78 mg of compound S-D1 and 680.42 mg KH2PO4 were weighed into a 100 mL volumetric flask, dissolved by ultrasonic in 50 mL of diluent 1, transferred 29.1 mL of the 0.1N NaOH (see above), diluted to volume with diluent 1, and mixed well.
(§1) Acid degradation (1N HCl at RT). 3 mL of the sample stock solution (see above) into an 8 mL vial, added 3 mL of 2N HCl solution, and mixed well. Samples were prepared in quadruplicate and kept at room temperature (RT). At the sampling time point, 1 mL of the sample was transferred into a 5 mL volumetric flask, neutralized with 0.5 mL of […], diluted to volume with diluent 2, and mixed well.
as §1, with “Basic” for “Acid”, “(0.15N NaOH” for “(1N HCl”, “0.3N NaOH” for “2N HCl”
Thermal stress degradation (50° C. for solid). Approximately 150 mg of compound S-D1 were weighed into an 8 mL vial. Multiple samples were prepared and placed in an oven at 50° C. At the sampling time points, each of the 50.57 mg, 50.84 mg, and 50.84 mg samples were transferred into their respective 100 mL volumetric flasks, dissolved by ultrasonic in 50 mL of diluent 2, diluted to volume with diluent 2, and mixed well.
Solution Stability. The study was performed according to the conditions outlined in Table 15 using sample solution for pH=4.0 solution stability, sample solution for pH=5.0 solution stability, and sample solution for pH=7.0 solution stability (see above).

[2] = Physical stability by XRPD upon drying at 50° C. under vacuum and exposure to >95% RH
Experimental: X-Ray Powder Diffraction (XRPD). XRPD was performed using a Rigaku MiniFlex 600 in reflection mode (i.e., Bragg-Brentano geometry). Samples were prepared on Si zero-return wafers.
XRPD analysis was done in three stages. XRPD of the wet cake was done for all samples where solids were observed.
(§2) The solids were then exposed to >95% RH overnight. This humid environment was produced by placing a beaker of saturated potassium sulfate in water in a sealed container at RT. The materials exposed to these conditions were evaluated by XRPD, and their patterns were compared to those produced before.
as §2, with “The pattern FF-B was dried at 50° C. under vacuum for 3 h after filtration for further XRPD analysis. The solids” for “The solids”, “to those of the crystalline freebase along each step.” for “to those produced before.”

[3] = Stability at 40° C./75% RH for 1 week; conditions: 40° C. and 75% RH
Experimental: The humid environment was generated with saturated sodium chloride in water in a sealed container. After one week, the sample appeared pale-yellow upon inspection.
(§3) The one-week stability at 75% RH was also tested. In this experiment, 12 mg of the dried crystalline freebase from MeOH were weighted in a 4 mL vial and placed in a 20 mL vial set at 40° C. and 75% RH for 1 week. The humid environment was generated with saturated sodium chloride in water in a sealed container.
as §3, with “the” for “the dried”, “was” for “were”

[4] = Acid Hydrolysis, 1N HCl RT, 0 h
[5] = Acid Hydrolysis, 1N HCl RT, 1 d
[6] = Acid Hydrolysis, 1N HCl RT, 2 d
[7] = Acid Hydrolysis, 1N HCl RT, 3 d
[8] = Base Hydrolysis, 0.15 N NaOH RT, 0 h
[9] = Base Hydrolysis, 0.15 N NaOH RT, 1 h
[10] = Solution Stability, pH = 4.0, 50 mM Sodium citrate buffer at RT, 0 h
[11] = Solution Stability, pH = 4.0, 50 mM Sodium citrate buffer at RT, 1 d
[12] = Solution Stability, pH = 4.0, 50 mM Sodium citrate buffer at RT, 2 d
[13] = Solution Stability, pH = 4.0, 50 mM Sodium citrate buffer at RT, 3 d
[14] = Solution Stability, pH = 5.0 50 mM Sodium citrate buffer at RT, 0 h
[15] = Solution Stability, pH = 5.0 50 mM Sodium citrate buffer at RT, 1 d
[16] = Solution Stability, pH = 5.0 50 mM Sodium citrate buffer at RT, 2 d
[17] = Solution Stability, pH = 5.0 50 mM Sodium citrate buffer at RT, 3 d
[18] = Solution Stability, pH = 7.0 Phosphate buffer at RT, 0 h
[19] = Solution Stability, pH = 7.0 Phosphate buffer at RT, 1 d
[20] = Solution Stability, pH = 7.0 Phosphate buffer at RT, 2 d
[21] = Solution Stability, pH = 7.0 Phosphate buffer at RT, 3 d

Structure (SMILES): COc1cc(-c2cn(C)c(=O)c3cnc(N4CCC4)cc23)cc(OC)c1CN1CCC(CN2CCC3(CC2)CN(c2ccc4c(c2)C(=O)N([C@H]2CCC(=O)NC2=O)C4)C3)CC1 [S-D1]
- % Degradation [1, 4]: 0.002%
- Area % (R-D1) [1, 4]: 0.825%
- Area % (S-D1) [1, 4]: 99.176%
- % Degradation [1, 5]: 0.005%
- Area % (R-D1) [1, 5]: 0.828%
- Area % (S-D1) [1, 5]: 99.172%
- % Degradation [1, 6]: 0.011%
- Area % (R-D1) [1, 6]: 0.834%
- Area % (S-D1) [1, 6]: 99.166%
- % Degradation [1, 7]: 0.016%
- Area % (R-D1) [1, 7]: 0.839%
- Area % (S-D1) [1, 7]: 99.161%
- % Degradation [1, 8]: 18.260%
- Area % (R-D1) [1, 8]: 19.083%
- Area % (S-D1) [1, 8]: 80.917%
- % Degradation [1, 9]: 52.210%
- Area % (R-D1) [1, 9]: 53.033%
- Area % (S-D1) [1, 9]: 46.967%
- % Degradation [1, 10]: 0.098%
- Area % (R-D1) [1, 10]: 0.921%
- Area % (S-D1) [1, 10]: 99.079%
- % Degradation [1, 11]: 0.139%
- Area % (R-D1) [1, 11]: 0.962%
- Area % (S-D1) [1, 11]: 99.038%
- % Degradation [1, 12]: 0.301%
- Area % (R-D1) [1, 12]: 1.124%
- Area % (S-D1) [1, 12]: 98.876%
- % Degradation [1, 13]: 0.482%
- Area % (R-D1) [1, 13]: 1.305%
- Area % (S-D1) [1, 13]: 98.695%
- % Degradation [1, 14]: 0.648%
- Area % (R-D1) [1, 14]: 1.471%
- Area % (S-D1) [1, 14]: 98.529%
- % Degradation [1, 15]: 1.038%
- Area % (R-D1) [1, 15]: 1.861%
- Area % (S-D1) [1, 15]: 98.139%
- % Degradation [1, 16]: 1.407%
- Area % (R-D1) [1, 16]: 2.230%
- Area % (S-D1) [1, 16]: 97.770%
- % Degradation [1, 17]: 2.002%
- Area % (R-D1) [1, 17]: 2.825%
- Area % (S-D1) [1, 17]: 97.175%
- % Degradation [1, 18]: 10.732%
- Area % (R-D1) [1, 18]: 11.555%
- Area % (S-D1) [1, 18]: 88.445%
- % Degradation [1, 19]: 18.922%
- Area % (R-D1) [1, 19]: 19.745%
- Area % (S-D1) [1, 19]: 80.255%
- % Degradation [1, 20]: 27.551%
- Area % (R-D1) [1, 20]: 28.374%
- Area % (S-D1) [1, 20]: 71.626%
- % Degradation [1, 21]: 35.103%
- Area % (R-D1) [1, 21]: 35.926%
- Area % (S-D1) [1, 21]: 64.074%
- % Degradation ([1]; Thermal, 50° C. (solid), 1 d): 0.178%
- Area % (R-D1) ([1]; Thermal, 50° C. (solid), 1 d): 1.001%
- Area % (S-D1) ([1]; Thermal, 50° C. (solid), 1 d): 98.999%
- % Degradation ([1]; Thermal, 50° C. (solid), 3 d): 0.331%
- Area % (R-D1) ([1]; Thermal, 50° C. (solid), 3 d): 1.154%
- Area % (S-D1) ([1]; Thermal, 50° C. (solid), 3 d): 98.847%
- % Degradation ([1]; Thermal, 50° C. (solid), 7 d): 0.380%
- Area % (R-D1) ([1]; Thermal, 50° C. (solid), 7 d): 1.203%
- Area % (S-D1) ([1]; Thermal, 50° C. (solid), 7 d): 98.797%
- Area % (R-D1) ([1]; Unstressed): 0.823%
- Area % (S-D1) ([1]; Unstressed): 99.177%

Structure (SMILES): COc1cc(-c2cn(C)c(=O)c3cnc(N4CCC4)cc23)cc(OC)c1CN1CCC(CN2CCC3(CC2)CN(c2ccc4c(c2)C(=O)N([C@@H]2CCC(=O)NC2=O)C4)C3)CC1.O=C(O)CC(O)(CC(=O)O)C(=O)O [citrate-A]
- physical stability (XRPD) upon drying at 50° C. under vacuum and exposure to >95% RH [2]: became amorphous after drying and exposure to RH

Structure (SMILES): COc1cc(-c2cn(C)c(=O)c3cnc(N4CCC4)cc23)cc(OC)c1CN1CCC(CN2CCC3(CC2)CN(c2ccc4c(c2)C(=O)N([C@@H]2CCC(=O)NC2=O)C4)C3)CC1 [crystal pattern FF-A]
- XRPD after storage [3]: converted to compound R-D1, crystal pattern FF-B
